Consider 19 compounds from patent publication US10899754B2, “Modulators of indoleamine 2,3-dioxygenase” (GLAXOSMITHKLINE INTELLECTUAL PROPERTY DEVELOPMENT LIMITED, priority 2016, dated 2021).

What all share (format): cell-based
Series [1] relates to human epithelial HeLa cells. Briefly: HeLa cytotoxicity assay (CellTiter-Glo). To be noted: pCC50. In short, it runs like this:
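HeLa cells (5,000/well) stimulated with 10 nM IFN-γ, exposed to 11-point 3-fold compound dilutions for 2 days at 37 °C; viability by CellTiter-Glo ATP luminescence. Normalized to cell-free (100% cytotoxicity) and stimulated-cell DMSO (0%) controls; four-parameter fit gives pCC50.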

For series [2], the system named is human peripheral blood mononuclear cells (PBMC). In words: PBMC cytotoxicity assay (CellTiter-Glo). To be noted: 2 days, pCC50. In short, it runs like this:
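Human PBMC (50,000 cells/well) stimulated with IFN-γ 100 ng/ml and LPS 50 ng/ml were exposed to 11-point 3-fold compound dilutions for 2 days at 37 °C, 5% CO2. Viability read by CellTiter-Glo ATP luminescence and normalized to no-cell and stimulated-DMSO controls. XC50 derived by four-parameter fit.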

The target of series [3] is T1, indoleamine 2, 3-dioxygenase (IDO1) (Homo sapiens, UniProt P14902). In words: IDO1 HeLa RapidFire MS assay (kynurenine detection by mass spectrometry). Further details: to induce the expression of indoleamine 2, 3-dioxygenase (IDO1). To be noted: HeLa cells, pIC50, read-out: IDO1_HELA_PXC50 (converted). In short, it runs like this:
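Compound potency reported as pIC50 from kynurenine/internal-standard ratio (RapidFire MS) in supernatant of IFN-γ-induced (10 nM) HeLa cells, 5,000 per well, after 2 days' treatment with 11-point dilutions. Cytotoxicity in the same format by luminescent ATP detection, reported as pCC50.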

The target of series [4] is T1, indoleamine 2, 3-dioxygenase (IDO1). Briefly: IDO1 PBMC RapidFire MS assay (kynurenine detection by mass spectrometry). Further details: to induce the expression of indoleamine 2, 3-dioxygenase (IDO1); host or cells: human PBMC stimulated with IFN-gamma and LPS. Conditions: human PBMC stimulated with IFN-γ and LPS, 2 days, pIC50, read-out: PBMC PXC50 (converted). Summed up: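 PBMCs (50,000 cells/well) stimulated with IFN-γ 100 ng/ml plus LPS 50 ng/ml, treated with 11-point 3-fold compound series for 2 days at 37° C. Supernatant kynurenine measured by RapidFire MS, normalised to internal standard; parallel cytotoxicity by CellTiter-Glo luminescence; curves fitted for XC50.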

T1 sequence (P14902 whole entry): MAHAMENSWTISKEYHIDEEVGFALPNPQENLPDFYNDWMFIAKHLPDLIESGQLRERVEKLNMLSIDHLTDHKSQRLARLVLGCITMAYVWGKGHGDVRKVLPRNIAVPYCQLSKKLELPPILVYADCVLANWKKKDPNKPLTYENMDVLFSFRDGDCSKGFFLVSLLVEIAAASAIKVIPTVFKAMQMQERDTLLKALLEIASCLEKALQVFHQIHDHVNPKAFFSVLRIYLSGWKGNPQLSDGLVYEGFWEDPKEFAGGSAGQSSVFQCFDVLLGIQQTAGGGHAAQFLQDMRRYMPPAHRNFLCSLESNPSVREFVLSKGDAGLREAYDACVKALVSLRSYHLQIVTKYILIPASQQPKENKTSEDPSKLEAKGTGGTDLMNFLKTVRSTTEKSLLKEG

On to `CC(C)CN(CC(C)C)c1ccc(C(C)CC(=O)O)cc1-n1nnnc1N` (stereo not drawn) [example 167, 3-[3-(5-amino-1H-1,2,3,4-tetrazol-1-yl)-4-[bis(2-methylpropyl)amino]phenyl]butanoic acid], for which the HELA_IDO1_TOX_PXC50 in series [1] is listed as below 5. In addition, the “PBMC TOX PXC50” value in series [2] is recorded as below 5. Also, the IC50 in series [3] was above 10000 nM; in series [4], 6310 nM.

Compound `CC(C)CN(c1ccc([C@H](C)CC(=O)O)cc1Nc1ccc(Cl)nn1)[C@H]1CC[C@H](O)CC1` [Example 57, (R)-3-(3-((6-chloropyridazin-3-yl)amino)-4-(((1r,4R)-4-hydroxycyclohexyl) (isobutyl)amino)phenyl)butanoic Acid] gave an HELA_IDO1_TOX_PXC50 in series [1] below 5. Also, the “PBMC TOX PXC50” value in series [2] is below 5. Also, the IC50 is 7.94 nM in series [3] and 5.01 nM in series [4].

Turning to `COCCc1nnc(Nc2cc([C@H](C)CC(=O)O)ccc2N(CC(C)C)CC(C)C)[nH]1` [example 203, (3R)-3-{4-[bis(2-methylpropyl)amino]-3-{[5-(2-methoxyethyl)-4H-1,2,4-triazol-3-yl]amino}phenyl}butanoic acid], in series [1], the HELA_IDO1_TOX_PXC50 is recorded as below 5. In addition, in series [2], the “PBMC TOX PXC50” value is below 5. Further, the IC50 in series [3] was 63.1 nM; in series [4], 31.6 nM.

Consider `CC(C)CN(CC(C)C)c1ccc(-c2ccccc2C(=O)O)cc1Nc1nc2ccccc2[nH]1` [example 297, 3′-[(1H-1,3-benzodiazol-2-yl)amino]-4′-[bis(2-methylpropyl)amino]-[1,1′-biphenyl]-2-carboxylic acid], for which, in series [1], the HELA_IDO1_TOX_PXC50 is reported as below 5. In series [2], the “PBMC TOX PXC50” value is below 5. Also, the IC50 in series [3] was 50.1 nM; in series [4] it was 20 nM.

The compound `CC(C)CN(c1ccc(-c2ccccc2C(=O)O)cc1Nc1nc(C(F)(F)F)ns1)[C@H]1CC[C@@H](O)CC1` [example 279, 4′-[(2-methylpropyl)[(1s,4s)-4-hydroxycyclohexyl]amino]-3′-{[3-(trifluoromethyl)-1,2,4-thiadiazol-5-yl]amino}-[1,1′-biphenyl]-2-carboxylic acid] gave an HELA_IDO1_TOX_PXC50 in series [1] below 5. In addition, the “PBMC TOX PXC50” value in series [2] is listed as below 5. For the same compound, the values for the IC50 in series [3] and in series [4] were 100 nM and 20 nM, respectively.

Turning to `CC(C)CN(c1ccc(C(C)CC(=O)O)cc1NCc1ccc(F)c(F)c1)C1CCCCC1` (stereo not drawn) [example 162, 3-{4-[cyclohexyl(2-methylpropyl)amino]-3-{[(3,4-difluorophenyl)methyl]amino}phenyl}butanoic acid], the HELA_IDO1_TOX_PXC50 in series [1] is below 5. In addition, in series [2], the “PBMC TOX PXC50” value is below 5. In addition, the figures for the IC50 in series [3] and in series [4] were 1000 nM and 398 nM, respectively.

On to `CC(C)CN(c1ccc([C@H](C)CC(=O)O)cc1Nc1cnc(C#N)nc1)C1CCOCC1` [Example 17, (R)-3-(3-((2-cyanopyrimidin-5-yl)amino)-4-(isobutyl(tetrahydro-2H-pyran-4-yl)amino)phenyl)butanoic Acid], for which the HELA_IDO1_TOX_PXC50 in series [1] is below 5. Moreover, in series [2], the “PBMC TOX PXC50” value is below 5. Moreover, the results for the IC50 in series [3] and in series [4] were 6.31 nM and 2 nM, respectively.

With `CC(C)CN(c1ccc([C@H](C)Cc2nnn[nH]2)cc1Nc1nc(C(F)(F)F)ns1)C1CCCCC1` [Example 101, (R)-4-(1-(1H-tetrazol-5-yl)propan-2-yl)-N^1-cyclohexyl-N^1-isobutyl-N^2-(3-(trifluoromethyl)-1,2,4-thiadiazol-5-yl)benzene-1,2-diamine], in series [1], the HELA_IDO1_TOX_PXC50 is given as below 5. For the same compound, the “PBMC TOX PXC50” value in series [2] was below 5. Besides, the IC50 in series [3] is 2.51 nM; in series [4] it was 1.58 nM.

With `COCc1nnc(Nc2cc([C@H](C)CC(=O)O)ccc2N(CC(C)C)C2CCOCC2)[nH]1` [example 213, (3R)-3-(3-{[5-(methoxymethyl)-4H-1,2,4-triazol-3-yl]amino}-4-[(2-methylpropyl)(oxan-4-yl)amino]phenyl)butanoic acid], the HELA_IDO1_TOX_PXC50 in series [1] is reported as below 5. Also, the “PBMC TOX PXC50” value in series [2] is below 5. Also, the IC50 in series [3] is 794 nM; in series [4], 200 nM.

Take `CC(C)CN(c1ccc(-c2ccccc2C(=O)O)cc1Nc1nc(C(F)(F)F)cs1)C1CCCCC1` [example 299, 4′-[cyclohexyl(2-methylpropyl)amino]-3′-{[4-(trifluoromethyl)-1,3-thiazol-2-yl]amino}-[1,1′-biphenyl]-2-carboxylic acid]: in series [1], the HELA_IDO1_TOX_PXC50 is given as below 5. Further, in series [2], the “PBMC TOX PXC50” value is below 5. The IC50 is 15.8 nM in series [3] and 6.31 nM in series [4].

Turning to `CO[C@H]1CC[C@@H](N(CC(C)C)c2ccc(-c3ccccc3C(=O)O)cc2Nc2nc(C(F)(F)F)ns2)CC1` [example 276, 4′-[(2-methylpropyl)[(1s,4s)-4-methoxycyclohexyl]ami-no]-3′-{[3-(trifluoromethyl)-1,2,4-thiadiazol-5-yl]amino}-[1,1′-biphenyl]-2-carboxylic acid], in series [1], the HELA_IDO1_TOX_PXC50 was below 5. Also, the “PBMC TOX PXC50” value in series [2] was below 5. Moreover, the results for the IC50 in series [3] and in series [4] were 3.98 nM and above 10000 nM, respectively.

`CC(C)CN(c1ccc(-c2ccccc2C(=O)O)cc1Nc1nc(C(F)(F)F)ns1)C1CCOCC1` [Example 103, 4′-(isobutyl(tetrahydro-2H-pyran-4-yl)amino)-3′-((3-(trifluoromethyl)-1,2,4-thiadiazol-5-yl)amino)-[1,1′-biphenyl]-2-carboxylic Acid] came in with an HELA_IDO1_TOX_PXC50 in series [1] below 5. Besides, the “PBMC TOX PXC50” value in series [2] is below 5. Also, the IC50 in series [3] is 3.16 nM; in series [4], 1.58 nM.

With `CC(C)CN(c1ccc([C@H](C)CC(=O)O)cc1Nc1cnc(C(F)(F)F)nc1)C1CCOCC1` [Example 9, (R)-3-(4-(isobutyl(tetrahydro-2H-pyran-4-yl)amino)-3-((2-(trifluoromethyl)pyrimidin-5-yl)amino)phenyl)butanoic Acid], the HELA_IDO1_TOX_PXC50 in series [1] was below 5. Further, the “PBMC TOX PXC50” value in series [2] was below 5. The IC50 in series [3] was 2.51 nM; in series [4] it was 1 nM.

On to `CC(C)CN(c1ccc([C@H](C)CC(=O)O)cc1Nc1nc(C(F)(F)F)ns1)[C@H]1CC[C@@H](O)CC1` [Example 59, (R)-3-(4-(((1s,4S)-4-hydroxycyclohexyl) (isobutyl)amino)-3-((3-(trifluoromethyl)-1,2,4-thiadiazol-5-yl)amino)phenyl)butanoic Acid], for which, in series [1], the HELA_IDO1_TOX_PXC50 was below 5. For the same compound, in series [2], the “PBMC TOX PXC50” value is below 5. Besides, the figures for the IC50 in series [3] and in series [4] were 10 nM and 6.31 nM, respectively.

With `CC(C)CN(c1ccc(C(C)(C)CC(=O)O)cc1Nc1nc(Cl)ns1)C1CCCCC1` [Example 2, 3-(3-((3-chloro-1,2,4-thiadiazol-5-yl)amino)-4-(cyclohexyl(isobutyl)amino)phenyl)-3-methylbutanoic Acid], the HELA_IDO1_TOX_PXC50 in series [1] is on record as below 5. In addition, in series [2], the “PBMC TOX PXC50” value was below 5. For the same compound, the results for the IC50 in series [3] and in series [4] were 7.94 nM and 1.58 nM, respectively.

As to `CC(C)CN(c1ccc([C@H](C)CC(=O)O)cc1Nc1ccc(C#N)cn1)C1CCCCC1` [Example 73, (R)-3-(3-((5-cyanopyridin-2-yl)amino)-4-(cyclohexyl(isobutyl)amino)phenyl)butanoic Acid], in series [1], the HELA_IDO1_TOX_PXC50 is listed as below 5. Besides, in series [2], the “PBMC TOX PXC50” value is recorded as below 5. Moreover, the results for the IC50 in series [3] and in series [4] were 3.98 nM and 0.794 nM, respectively.

As to `CC(C)CN(c1ccc(-c2ccccc2C(=O)O)cc1Nc1nc(C(N)=O)ns1)C1CCCCC1` [Example 91, 3′-((3-carbamoyl-1,2,4-thiadiazol-5-yl)amino)-4′-(cyclohexyl(isobutyl)amino)-[1,1′-biphenyl]-2-carboxylic acid], in series [1], the HELA_IDO1_TOX_PXC50 is below 5. In series [2], the “PBMC TOX PXC50” value is given as below 5. For the same compound, the IC50 in series [3] is 20 nM; in series [4], 10 nM.

Turning to `COCc1nnc(Nc2cc([C@H](C)CC(=O)O)ccc2N(CC(C)C)C2CCCCC2)[nH]1` [Example 82, (R)-3-(4-(cyclohexyl(isobutyl)amino)-3-((5-(methoxymethyl)-4H-1,2,4-triazol-3-yl)amino)phenyl)butanoic Acid], in series [1], the HELA_IDO1_TOX_PXC50 is reported as below 5. For the same compound, the “PBMC TOX PXC50” value in series [2] is given as below 5. The IC50 in series [3] was 15.8 nM; in series [4] it was 7.94 nM.

On to `CC(C)CN(c1ccc([C@H](C)CC(=O)O)cc1NC1CCCC1)C1CCCCC1` [example 179, (3R)-3-{4-[cyclohexyl(2-methylpropyl)amino]-3-(cyclopentylamino)phenyl}butanoic acid], for which the HELA_IDO1_TOX_PXC50 in series [1] is listed as below 5. The values for the IC50 in series [3] and in series [4] were 251 nM and 126 nM, respectively.
